# Laboratory results from patent US10947213B1 (Merck Patent GmbH, priority 2015, dated 2021).
# Counter-ions that a name gives are not always drawn.
# Biological target: T1, TLR7/NFKb HEK cells (Homo sapiens, UniProt Q9NYK1)
# T1 construct: expressed in transfected cells; host or cells: HEK cells (TLR7/NFKb reporter line)
# T1 sequence (Q9NYK1 27-1049): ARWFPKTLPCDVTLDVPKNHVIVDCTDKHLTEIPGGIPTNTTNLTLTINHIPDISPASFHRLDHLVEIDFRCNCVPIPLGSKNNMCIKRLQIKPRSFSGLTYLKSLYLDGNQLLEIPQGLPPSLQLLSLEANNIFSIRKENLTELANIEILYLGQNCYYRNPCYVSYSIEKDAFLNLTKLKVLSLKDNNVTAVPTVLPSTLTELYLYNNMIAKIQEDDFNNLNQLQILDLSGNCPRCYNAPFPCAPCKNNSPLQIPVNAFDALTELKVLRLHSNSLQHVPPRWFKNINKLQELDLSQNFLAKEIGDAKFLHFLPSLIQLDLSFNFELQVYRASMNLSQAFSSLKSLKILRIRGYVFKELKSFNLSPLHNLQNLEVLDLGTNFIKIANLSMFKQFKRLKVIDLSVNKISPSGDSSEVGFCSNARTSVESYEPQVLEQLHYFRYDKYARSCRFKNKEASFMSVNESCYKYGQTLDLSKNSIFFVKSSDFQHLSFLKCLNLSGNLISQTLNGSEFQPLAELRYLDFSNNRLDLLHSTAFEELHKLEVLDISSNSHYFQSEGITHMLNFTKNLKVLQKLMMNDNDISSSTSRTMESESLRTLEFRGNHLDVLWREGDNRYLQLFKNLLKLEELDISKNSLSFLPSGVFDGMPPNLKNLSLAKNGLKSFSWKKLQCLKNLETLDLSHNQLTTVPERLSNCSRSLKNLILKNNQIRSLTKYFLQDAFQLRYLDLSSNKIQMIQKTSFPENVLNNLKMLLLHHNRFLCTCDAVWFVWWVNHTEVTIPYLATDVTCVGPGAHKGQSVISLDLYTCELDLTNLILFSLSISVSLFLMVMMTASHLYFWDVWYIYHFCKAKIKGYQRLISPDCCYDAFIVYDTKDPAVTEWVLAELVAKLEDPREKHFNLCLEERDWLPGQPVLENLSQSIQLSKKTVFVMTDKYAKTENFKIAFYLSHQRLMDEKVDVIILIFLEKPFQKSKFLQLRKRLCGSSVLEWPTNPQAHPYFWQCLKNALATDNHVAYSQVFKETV
# Assay: HEK Cell Assay (TLR7/NFKb reporter, Steady-Glo luciferase readout)
# Assay type: cell-based
# Conditions: 30 min compound preincubation, then R*48 agonist for 5 hours, read-out: Potency
# Summary of the method: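 Steady-Glo luminescence after 5 h stimulation with R*48 agonist, following 30 min compound preincubation. Assay run in HEK cells carrying a TLR7/NFKb luciferase reporter, plated at 5000 cells/well and grown 24 h at 37° C (10% CO2) before treatment.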
row,Structure (SMILES),IC50
1,"N#Cc1ccc(N2CC(NC3CCC(O)CC3)CC(C(F)(F)F)C2)c2nccnc12 (single isomer, unassigned) [Compound 91, cis,cis-8-(3-((4-hydroxycyclohexyl)amino)-5-(trifluoromethyl)piperidin-1-yl)quinoxaline-5-carbonitrile]",< 1000 nM
2,"CCC(C)CC(=O)N[C@@H]1C[C@H](C)CN(c2ccc(C#N)c3nccnc23)C1 (single isomer, unassigned) [Compound 151]",< 1000 nM
3,"C[C@H]1C[C@@H](NC(=O)CC2CCCN(C)C2)CN(c2ccc(C(F)(F)F)c3nccnc23)C1 (stereo partly drawn) [Compound 293, N-[(3R,5S)-5-methyl-1-[8-(trifluoromethyl)quinoxalin-5-yl]piperidin-3-yl]-2-(1-methylpiperidin-3-yl)acetamide]",< 1000 nM
4,N#Cc1ccc(N2C[C@@H](NC(=O)CCC(=O)N3CCC3)C[C@@H](C(F)(F)F)C2)c2cccnc12 (racemic) [Compound 482],1000 to 10000 nM
5,"CC(C(=O)N[C@@H]1C[C@H](C)CN(c2ccc(C#N)c3nccnc23)C1)N1CCC(O)CC1 (stereo partly drawn) [Compound 275, N-[(3R,5S)-1-(8-cyanoquinoxalin-5-yl)-5-methylpiperidin-3-yl]-2-(4-hydroxypiperidin-1-yl)propanamide]",< 1000 nM
6,"CN1CCC(NC2CC(C(F)(F)F)CN(c3ccc(C#N)c4nccnc34)C2)C1=O (single isomer, unassigned) [Compound 225]",1000 to 10000 nM
7,"C[C@H]1C[C@@H](NC(=O)C(N)C(F)(F)F)CN(c2ccc(C#N)c3nccnc23)C1 (single isomer, unassigned) [Compound 112, hydrochloride]",1000 to 10000 nM
8,"COC(C)C(=O)N[C@@H]1C[C@H](C)CN(c2ccnc3nccnc23)C1 (single isomer, unassigned) [Compound 160]",> 10000 nM
9,"C[C@H]1C[C@@H](NC(=O)C2CCN(C3CC3)CC2)CN(c2ccc(C(F)(F)F)c3ncccc23)C1 [Compound 574, 1-Cyclopropyl-piperidine-4-carboxylic acid [(3R,5S)-5-methyl-1-(8-trifluoromethyl-quinolin-5-yl)-piperidin-3-yl]-amide]",< 1000 nM
10,"CN1CCC(NC(=O)C2CN(c3ccc(C#N)c4nccnc34)CC(F)(F)C2)CC1 (stereo not shown) [Compound 529, 1-(8-Cyano-quinoxalin-5-yl)-5,5-difluoro-piperidine-3-carboxylic acid (1-methyl-piperidin-4-yl)-amide]",< 1000 nM
11,"COc1ccc(N2C[C@@H](N)C[C@@H](C3CC3)C2)c2cccnc12 (relative stereo) [Compound 334, cis-5-cyclopropyl-1-(8-methoxyquinolin-5-yl)piperidin-3-amine]",< 1000 nM
12,"CCN(C)[C@@H](C)C(=O)N[C@@H]1C[C@H](C)CN(c2ccc(C#N)c3nccnc23)C1 [Compound 99, (2S)—N-[(3R,5S)-1-(8-cyanoquinoxalin-5-yl)-5-methylpiperidin-3-yl]-2-[ethyl(methyl)amino]propanamide]",< 1000 nM
13,"C[C@H]1C[C@@H](NC(=O)CN(C)C)CN(c2ccc(F)c3ncccc23)C1 [Compound 469, 2-Dimethylamino-N-[(3R,5S)-1-(8-fluoro-quinolin-5-yl)-5-methyl-piperidin-3-yl]-acetamide]",1000 to 10000 nM
14,"C[C@H]1C[C@@H](NC(=O)C(C)(C)C2CCN(C)CC2)CN(c2ccc(C(F)(F)F)c3ncccc23)C1 [Compound 351, 2-methyl-N-[(3R,5S)-5-methyl-1-[8-(trifluoromethyl)quinolin-5-yl]piperidin-3-yl]-2-(1-methylpiperidin-4-yl)propanamide]",< 1000 nM
15,"C[C@@H]1CN(c2ccc(C#N)c3ncncc23)C[C@H](C)O1 [Compound 393, cis-5-(2,6-Dimethyl-morpholin-4-yl)-quinazoline-8-carbonitrile]",1000 to 10000 nM
16,"O=C(NC1CCN(CC2CC2)C1)C1CCN(c2ccc(C(F)(F)F)c3ncccc23)CC1 (single isomer, unassigned) [Compound 444]",< 1000 nM
17,CC(C)(O)CC(=O)N[C@@H]1C[C@H](C(F)(F)F)CN(c2ccc(C#N)c3ncccc23)C1 (racemic) [Compound 481],1000 to 10000 nM

row,Structure (SMILES),IC50
1,"C[C@H]1C[C@@H](NC(=O)C2(O)CC2)CN(c2ccc(C(F)(F)F)c3nccnc23)C1 [Compound 251, 1-hydroxy-N-[(3R,5S)-5-methyl-1-[8-(trifluoromethyl)quinoxalin-5-yl]piperidin-3-yl]cyclopropane-1-carboxamide]",1000 to 10000 nM
2,"NC1CN(c2ccc(C(F)(F)F)c3ncccc23)CC(F)(F)C1 (single isomer, unassigned) [Compound 527]",< 1000 nM
3,"C[C@H]1C[C@@H](NC(=O)CC2CN(C)C2)CN(c2ccc(C#N)c3nccnc23)C1 [Compound 359, N-[(3R,5S)-1-(8-cyanoquinoxalin-5-yl)-5-methylpiperidin-3-yl]-2-(1-methylazetidin-3-yl)acetamide]",< 1000 nM
4,"C[C@H]1C[C@@H](NC(=O)C2CCCN2C)CN(c2ccnc3nccnc23)C1 (stereo partly drawn) [Compound 172, Methyl-N-[(3R,5S)-5-methyl-1-[pyrido[2,3-b]pyrazin-8-yl]piperidin-3-yl]pyrrolidine-2-carboxamide]",1000 to 10000 nM
5,"C[C@H]1C[C@@H](NC2CCNC2=O)CN(c2ccnc3nccnc23)C1 (stereo partly drawn) [Compound 127, 3-[[(3R,5S)-5-methyl-1-[pyrido[2,3-b]pyrazin-8-yl]piperidin-3-yl]amino]pyrrolidin-2-one]",> 10000 nM
6,CCN(CC)CCNC(=O)C1CCN(c2ccnc3nccnc23)CC1 [Compound 379],1000 to 10000 nM
7,"C[C@H]1C[C@@H](NC(=O)[C@H](N)CO)CN(c2ccnc3nccnc23)C1 [Compound 107, (2R)-2-amino-3-hydroxy-N-[(3R,5S)-5-methyl-1-[pyrido[2,3-b]pyrazin-8-yl]piperidin-3-yl]propanamide]",> 10000 nM
8,"COc1cccc(NCC(=O)NCC2CCN(c3ccnc4nccnc34)CC2)c1 [Compound 404, 2-(3-Methoxy-phenylamino)-N-(1-pyrido[2,3-b]pyrazin-8-yl-piperidin-4-ylmethyl)-acetamide]",> 10000 nM
9,"Cc1ncc(N2C[C@@H](C)C[C@@H](NC(=O)CC3CN(C(=O)OC(C)(C)C)C3)C2)c2cccnc12 [Compound 557, 3-{[(3R,5S)-5-Methyl-1-(8-methyl-[1,7]naphthyridin-5-yl)-piperidin-3-ylcarbamoyl]-methyl}-azetidine-1-carboxylic Acid tert-butyl ester]",1000 to 10000 nM
10,"CCN(C)[C@H](C)C(=O)N[C@@H]1C[C@H](C)CN(c2ccnc3nccnc23)C1 [Compound 100, (2R)-2-[ethyl(methyl)amino]-N-[(3R,5S)-5-methyl-1-[pyrido[2,3-b]pyrazin-8-yl]piperidin-3-yl]propanamide]",1000 to 10000 nM
11,"C[C@H]1C[C@@H](NC(=O)C(O)C2CC2)CN(c2ccc(C(F)(F)F)c3ncccc23)C1 (single isomer, unassigned) [Compound 520]",< 1000 nM
12,"CN(C(=O)CN1CCOCC1)[C@H]1C[C@@H](C2CC2)CN(c2ccc(C(F)(F)F)c3ncccc23)C1 (relative stereo) [Compound 337, cis-N-[5-cyclopropyl-1-[8-(trifluoromethyl)quinolin-5-yl]piperidin-3-yl]-N-methyl-2-(morpholin-4-yl)acetamide]",> 10000 nM
13,"C[C@H]1C[C@@H](NC(=O)C(N)C(F)(F)F)CN(c2ccc(C#N)c3nccnc23)C1 (single isomer, unassigned) [Compound 113, hydrochloride]",< 1000 nM
14,"CC(C)[C@H](O)C(=O)N[C@@H]1C[C@H](C)CN(c2ccc(C(F)F)c3ncccc23)C1 [Compound 204, (2S)—N-[(3R,5S)-1-[8-(difluoromethyl)quinolin-5-yl]-5-methylpiperidin-3-yl]-2-hydroxy-3-methylbutanamide]",< 1000 nM
15,"C[C@H]1C[C@@H](NC(=O)CC2CC2(F)F)CN(c2ccc(C#N)c3nccnc23)C1 (stereo partly drawn) [Compound 272, N-[(3R,5S)-1-(8-cyanoquinoxalin-5-yl)-5-methylpiperidin-3-yl]-2-(2,2-difluorocyclopropyl)acetamide]",< 1000 nM
16,"C[C@H]1C[C@@H](NC(=O)CC2CNC2)CN(c2ccc(C(F)F)c3nccnc23)C1 [Compound 324, 2-(azetidin-3-yl)-N-[(3R,5S)-1-[8-(difluoromethyl)quinoxalin-5-yl]-5-methylpiperidin-3-yl]acetamide]",1000 to 10000 nM
17,"C[C@@H]1CN(c2ccnc3ccccc23)C[C@H](C)O1 [Compound 45, (2S,6R)-2,6-dimethyl-4-(quinolin-4-yl)morpholine]",> 10000 nM
